Measurements taken from patent publication US9308244B2, “Combination therapy using active immunotherapy” (immatics Biotechnologies GmbH, priority 2007, dated 2016).
Entries after “also recorded” stand apart in the source; their conditions may differ.

Assays:
C57BL/6 T cells = assay: Mouse mixed lymphocyte reaction (CFSE-labeled C57BL/6 spleen cells vs irradiated BALB/c splenocytes); type: cell-based; conditions: for Cell morphology in flow cytometry (putatively toxic effects): 13 μM sorafenib
Method: CFSE-labeled spleen cells from C57BL/6 (H2-b) mice were co-cultured with irradiated splenocytes from BALB/c (H2-d) mice, resulting in the strong allogenic response and proliferation of the C57BL/6 T cells against H2-d MHC molecules. The proliferation of the T cells results in a diminished CFSE staining of the divided cells. Percentage of divided cells and their number of divisions can be analyzed by flow cytometry.
Spleen cells were prepared from 1 C57BL/6 mouse and 1 BALB/c mouse (Harlan Winkelmann GmbH, Borchen, Germany). BALB/c cells were irradiated with 33 Gy. Effectors (C57BL/6) were adjusted to 20 Mio cells/ml. A 2 mM 5(6)-Carboxyfluorescindiacetate-N-succinimidylester (CFSE, Fluka, Buchs, Switzerland) solution in PBS was freshly prepared from a 10 mM DMSO stock solution. The cell suspension was mixed 1:1 with the CFSE solution. After incubation at 37° C. for 4 min, reaction was stopped by addition of fetal calf serum (Biochrom, Berlin, Germany), and free CFSE was washed out. 2×10^5 stimulator cells (BALB/c) were plated into cavities of a 96-well round-bottom plate. 1×10^5 or 2×10^5 CFSE-labeled effector cells and tyrosine kinase inhibitors at two different concentrations were added. Appropriate positive and negative controls were included. All cultures were in 200 μl T-cell medium with 0.1% (v/v) DMSO for 5 or 7 days without further medium change. Thereafter, cells were stained with fluorescently labelled anti-CD4-PerCP and anti-CD8-FITC antibodies (both BD Biosciences, Heidelberg, Germany) and analyzed by flow cytometry.
The experiment described above was repeated with the exception that a 96-well flat-bottom plate was used for mixed lymphocyte reactions (MLRs), a syngenic control with irradiated C57BL/6 cells was included, more concentrations of inhibitors were assessed, and all groups were analyzed in triplicates.
During cultivation, half of the medium was replaced with fresh appropriate medium supplemented with final concentrations of tyrosine kinase inhibitors every day, and proliferation was analyzed at day 7 only. Additionally cells were stained for H2-Kb to clearly identify effector cells in a further dimension.

[1] = tested on: primary clear cell renal cell carcinoma (ccRCC); assay: mRNA expression in primary ccRCC tumor tissue of a patient treated with sorafenib before surgery; type: in vivo, human
Method: mRNA expression was measured as described in 1.1 except that mRNA from 20 primary clear cell renal cell carcinoma (ccRCC) samples of patients not treated with TKIs and 1 locally recurring ccRCC tumor sample of a patient having received sorafenib treatment (800 mg Nexavar™ per day starting 35 days before and stopping 2 days before surgery) previous to surgery were included in this analysis.
Tumor tissue specimens were snap-frozen in liquid nitrogen immediately after surgery and later homogenized with mortar and pestle under liquid nitrogen. Total RNA was prepared from these samples using TRIzol (Invitrogen) or TRI Reagent (Fermentas) followed by a cleanup with RNeasy (QIAGEN); both methods were performed according to the manufacturers' protocols.
Gene expression analysis of the tumor samples was performed by Affymetrix Human Genome (HG) U133A or HG-U133 Plus 2.0 oligonucleotide microarrays (Affymetrix, Santa Clara, Calif., USA). A normal reference kidney sample was hybridized to both array types to achieve direct comparability of all samples.
Briefly, double-stranded cDNA was synthesized from 5-8 μg of total RNA, using SuperScript RTII (Invitrogen) and the oligo-dT-T7 primer (MWG Biotech, Ebersberg, Germany) as described in the manual. […] Pairwise comparisons were calculated using the respective normal reference kidney array as baseline. […] Relative expression values were calculated from the signal log ratios given by the software and the normal kidney sample was arbitrarily set to 1.0.

[2] = RCC of one patient, 800 mg Nexavar per day from 35 to 2 days before surgery, normal kidney = 1.0
[3] = RCC of one patient, 800 mg Nexavar per day from 35 to 2 days before surgery, normal kidney = 1.0, listed as sorafenib

In the case of `CNC(=O)c1cc(Oc2ccc(NC(=O)Nc3ccc(Cl)c(C(F)(F)F)c3)cc2)ccn1` [Sorafenib, 4-(4-{3-[4-Chloro-3-(trifluoromethyl)phenyl]ureido}phenoxy)-N-methylpyrid-ine-2-carboxamide], the “CD4+ T-cell proliferation in response to allogenic stimuli (summary)” value (C57BL/6 T cells) is reported as “increased”, the “CD8+ T-cell proliferation in response to allogenic stimuli (summary)” value (C57BL/6 T cells) is reported as “slightly decreased; also recorded: slightly reduced” and the CD8 proliferation (C57BL/6 T cells; first experiment, 1.3 μM sorafenib) is reported as “only slightly affected”. The “Cell morphology in flow cytometry (putatively toxic effects)” value (C57BL/6 T cells; first experiment) was “different morphology”, the “Cell morphology in flow cytometry (putatively toxic effects)” value (C57BL/6 T cells; first experiment, listed as sorafenib) was “clear change in morphology” and the “Level inducing toxic effects (dramatically changed morphology of cells in flow cytometry)” value (C57BL/6 T cells; second experiment) was ≥ 6.5 μM. For the same compound, the “Cell morphology (toxic effects of the drug)” value (C57BL/6 T cells; second experiment, 6.5 or 13 μM Sorafenib) was “severe changes in morphology”, the “CD8+ proliferation” value (C57BL/6 T cells; second experiment, day 7) was “slight decrease” and the “Proliferation of CD4+ cells” value (C57BL/6 T cells; second experiment, day 7, 1.6 μM sorafenib) was “significant increase”. For the same compound, the “Drug-related toxicity for cells in mixed lymphocyte reactions (summary)” value (C57BL/6 T cells; sorafenib: at concentration near the steady-state plasma level of treated patients) was “toxic”, the “Expression relative to normal reference kidney: ADFP” value [1, 2] was 5.7 and the “Expression relative to normal reference kidney: APOL1” value [1, 2] was 19.7. For the same compound, the “Expression relative to normal reference kidney: CCND1” value [1, 2] was 3.2, the “Expression relative to normal reference kidney: GUCY1A3” value [1, 2] was 0.5 and the “Expression relative to normal reference kidney: HLA-A” value [1, 2] was 0.9. For the same compound, the “Expression relative to normal reference kidney: HLA-B” value [1, 2] was 2.1, the “Expression relative to normal reference kidney: HLA-C” value [1, 2] was 1.0 and the “Expression relative to normal reference kidney: HLA-DPB1” value [1, 2] was 4.0. The “Expression relative to normal reference kidney: HLA-DQB1” value [1, 2] was 168.9, the “Expression relative to normal reference kidney: HLA-DRB1” value [1, 2] was 2.8 and the “Expression relative to normal reference kidney: KIAA0367” value [1, 2] was 1.2. For the same compound, the “Expression relative to normal reference kidney: MET” value [1, 2] was 9.8, the “Expression relative to normal reference kidney: MMP7” value [1, 2] was 6.1 and the “Expression relative to normal reference kidney: MUC1” value [1, 2] was 0.3. For the same compound, the “Expression relative to normal reference kidney: PSMB8” value [1, 2] was 3.5, the “Expression relative to normal reference kidney: PSMB9” value [1, 2] was 5.7 and the “Expression relative to normal reference kidney: RGS5” value [1, 2] was 1.5. The “Expression relative to normal reference kidney: TAP1” value [1, 2] was 2.1, the “Expression relative to normal reference kidney: GUCY1A3” value [1, 3] was “at the lower boundary of the range” and the “Expression relative to normal reference kidney: RGS5” value [1, 3] was “at the lower boundary of the range”. For the same compound, the “Expression profile of tumor associated antigens or their HLA presentation in vivo vs range of untreated ccRCC (in words)” value ([1]; one sorafenib-treated patient vs 20 untreated ccRCC, range = mean ± one standard deviation) was “lie within this range for most antigens; also recorded: do not provide any evidence for a potential influence”.
